From article PMC8659110, “Preliminary Study of New Gallium-68 Radiolabeled Peptide Targeting NRP-1 to Detect Brain Metastases by Positron Emission Tomography” (Molecules, 2021)
Like-named read-outs stand apart in the source and are kept apart here. Where a SMILES comes first, the peptide text is derived from it. Primed or numbered codes have the meaning given here. Where no end group is shown, it is not given here. The star is where a group is joined. Cy5(nonsulfonated) = CN1C(=CC=CC=CC2=[N+](CCCCCC(=O)*)c3ccccc3C2(C)C)C(C)(C)c2ccccc21; NODAGA = O=C(O)CN1CCN(CC(=O)O)CCN(C(CCC(=O)*)C(=O)O)CC1; Cy5 = Cy5 fluorophore (fluorescent dye); NODAGA′ = chelator

Legend:
[1] = Photophysical properties (absorption and fluorescence) in water; type: physicochemical; settings: for Fluorescence quantum yield (φF): λex = 590 nm
Protocol: All reactions involving cyanine5 compounds were performed in the dark. Preparative reverse-phase high-performance liquid chromatography (HPLC) was performed on SPOT PREP Liquid Chromatography (ARMEN Instrument, Saint-Avé, France) with a Pursuit 5-C18 column (5 μm, 21.2 × 150 mm; Varian). Pure compounds obtained were analyzed accordingly by LC-MS on a Shimadzu LCMS-2020 monitored by a Diode Array Detector SPD-M20A (Shimadzu, Marne la Vallée, France) using a Pursuit 5-C18 column (4.6 × 150 mm; Varian) (Varian, Agilent Technologies, Santa Clara, CA, USA). Absorption spectra were recorded on a Perkin-Elmer Lambda EZ210 (Perkin-Elmer, Courtaboeuf, France) double-beam UV–visible spectrophotometer. Fluorescence spectra were recorded on a Fluorolog-3 spectrofluorometer FL3-222 (Horiba Jobin Yvon, Longjumeau, France) with a thermostated cell compartment (25 °C) using a 450-W Xenon lamp. The fluorescence quantum yield (φF) was determined using tetraphenyl porphyrin (TPP) solution in toluene as the fluorescence standard (φF = 0.11).

[2] = biological target: NRP-1 recombinant chimeric protein; assay: Competitive binding assay with biotinylated VEGF-165 on recombinant NRP-1; settings: for IC50: in the presence of heparin, 2 h at room temperature, read-out: IC50 ± SD (displacement of 50% of b-VEGF-165); for Concentration needed to decrease the binding of b-VEGF-165 to NRP-1: only at high concentration
Source text: (§1) We evaluated the binding capacity of compounds toward NRP-1 using two different techniques: (1) a competitive binding assay with biotinylated VEGF (b-VEGF-165), a natural ligand of NRP-1 immobilized on a microplate surface in the presence of heparin, which allowed calculating the IC50 (the concentration of compound that displaced 50% of b-VEGF-165), and (2) surface plasmon resonance (SPR), a sensitive, optical-based, label-free detection technology for the real-time monitoring of molecular interactions between injected analytes and ligands covalently attached to the surface of a sensor chip. This technique was used to calculate the KD. VEGF-165 was used as the positive control in these two techniques.
The binding of compounds for the NRP-1 protein was evaluated in terms of the half-maximal inhibitory concentration (IC50 values) through a competitive assay, as previously described. VEGF-165, the natural ligand of NRP-1, was used as the positive control. Briefly, the surfaces of Maxisorp microplates (Thermo Fisher Scientific, France) were coated with NRP-1 recombinant chimeric proteins (Bio-techne, France). The binding of compounds to NRP-1 was assessed using biotinylated VEGF-165 (b-VEGF-165) (AcroBioSystem, Interchim, France) in the presence of heparin (Bio-techne, France) in competition or not with various concentrations of compounds or unlabeled VEGF-165 (Bio-techne, France) as the positive control. After 2 h of incubation at room temperature, the plates were washed, and the amount of bound b-VEGF-165 was stained with streptavidin horseradish peroxidase conjugate (Bio-techne, France) and assayed. […] The results were expressed as the mean of the relative absorbance percentage to wells containing only blocking buffers of triplicate measurements. The affinities were estimated as the IC50 values (i.e., the concentration of compounds that displaced 50% of β-VEGF-165 binding) calculated using the one-site fit log-IC50 nonlinear analysis regression of GraphPad Prism 6 software (v 6.05, USA).

MDA-MB-231 cells = assay: Proliferation assay, real-time cell tracking (IncuCyte), MDA-MB-231; type: cell-based; settings: for Doubling-time values (Time (h) ± SD): exponential phase
Protocol: (§2) The proliferation of MDA-MB-231 and HUVEC cells were investigated using a label-free, noninvasive IncuCyte® S3 live-cell imaging system (Sartorius, Germany). Cells were plated as described for metabolic activity placed in an incubator (Binder) at 37 °C. Cells were photographed at 2-h intervals using a 20× objective over several days. […] Phase–object confluence was calculated at each time point based on the segmentation of high-definition phase-contrast images using IncuCyte S3 2018B software and expressed in percentages. Experiments were performed in triplicate.
(§3) Cell doubling time (DT) was calculated using the following Equation (1):(1) DT=Tend−TstartLn2/LnCend−LnCstart where Tstart/Tend are the times at the start/end of the exponential growth phase. Cstart/Cend are the percentage of confluence of the cells at the start/end of the exponential growth phase.

HUVEC cells = assay: Proliferation assay, real-time cell tracking (IncuCyte), HUVEC; type: cell-based, human; settings: for Doubling-time values (Time (h) ± SD): exponential phase
Protocol: as §2, §3

NRP-1 protein = system: NRP-1 protein; design: method as in PMID 19464192, PMID 25645959; settings: previous studies; cited from earlier work
NRP-1 = biological target: NRP-1; design: method as in PMID 22372770; settings: read-out: KD previously found; cited from earlier work
[3] = biological target: T1, recombinant rat NRP-1 protein (Rattus norvegicus, UniProt Q9QWJ9); assay: Surface plasmon resonance (SPR) on immobilized recombinant NRP-1; type: binding; settings: Figure S5, injected at 10 and 30 µM
T1 construct: purchased Bio-techne (France)
Source text: as §1
The equilibrium dissociation constant (KD) was evaluated using surface plasmon resonance, based on Gries et al.. All experiments were performed at 25 °C using the BIACORE T200 instrument (GE Healthcare Biacore, Uppsala, Sweden). Sensor surfaces and other Biacore consumables were purchased from GE Healthcare Biacore (USA). […]
They flowed at a rate of 30 µL/min for 300 s at 25 °C. […] The equilibrium response was recorded 5 s before the end of the compound injection (time window: 5 s). […] The KD value was determined by fitting the response (RU) versus analyte concentration (µM) curve to a simple 1:1 interaction model with the BiaEvaluation 3.2 software (GE Healthcare). […]

[4] = type: physicochemical; settings: 2 h
Protocol: (§4) The stability of [^68Ga]Ga-NODAGA-K(Cy5)DKPPR was performed in various media, final formulated media, and plasma.
The final [^68Ga]Ga-NODAGA-K(Cy5)DKPPR was kept at room temperature and analyzed by radio-HPLC at the end of the synthesis and 1 h, 2 h, and 3 h after manufacturing.

[5] = system: MDA-MB-231 tumor in the rat brain; design: species or system nude rat; settings: in vivo
Protocol: Breast cells from the MDA-MB-231 lineage (MDA-MB-231 (ATCC® HTB-26)) were induced by the vascular injection of 2.5 × 10^5 cells resuspended in a volume of 50 µL of RPMI medium (Merck, Molsheim, France) into the animal’s internal carotid.
PET recordings were obtained with a camera dedicated to small animal studies (Inveon, Siemens Preclinical Solutions, Knoxville, TN, USA). After rats anesthetized with isoflurane, 50 MBq of [^68Ga]Ga-NODAGA-K(Cy5)DKPPR (1st day) were injected as a bolus via a lateral tail vein. […]
The uptake values are expressed in SUV (Standardized Uptake Values), which are standardized fixation values relative to the animal’s weight and injected activity. Tissue time activity curves (TTACs) for tumors and various organ activities were determined by average SUVs in volumes of interest (VOI), which were drawn with dedicated software (Inveon Research Workplace 4.1, Siemens®, Knoxville, USA) on static images encompassing the whole acquisition. […]

[6] = type: in vitro ADME, rodent
Protocol: as §4
For the stability in plasma, 100 µL of [^68Ga]Ga-NODAGA-K(Cy5)DKPPR was added to 400 µL of fresh rodent plasma and was incubated at 37 °C for 0, 30, 60, and 120 min. After incubation, the solutions were treated with 400 µL of acetonitrile to precipitate the proteins, vortexed for 1 min, and then centrifuged (2500 rpm, 980 G, 5 min). The supernatant layer was analyzed by analytical radio-HPLC.

| IC50 [2] | Compound | Molar extinction coefficient (ε) [1] | Fluorescence quantum yield (φF) [1] | Doubling-time values (Time (h) ± SD) (MDA-MB-231 cells; MDA MB 231, 1 µM) | Doubling-time values (Time (h) ± SD) (MDA-MB-231 cells; MDA MB 231, 10 µM) | Doubling-time values (Time (h) ± SD) (HUVEC cells; 1 µM) | Doubling-time values (Time (h) ± SD) (HUVEC cells; 10 µM) | other results |
| --- | --- | --- | --- | --- | --- | --- | --- | --- |
|  | C[N+]1=C(C=CC=CC=C2N(CCCCCC(=O)ON3C(=O)CCC3=O)c3ccccc3C2(C)C)C(C)(C)c2ccccc21.[Cl-] [Cy5-NHS, Cyanine5-NHS ester, reference compound] | 209,000 L mol^−1 cm^−1 | 27% |  |  |  |  |  |
| 0.1 µM | CN1C(=CC=CC=CC2=[N+](CCCCCC(=O)NCCCC[C@H](NC(=O)CCC(C(=O)O)N3CCN(CC(=O)O)CCN(CC(=O)O)CC3)C(=O)N[C@@H](CC(=O)O)C(=O)N[C@@H](CCCCN)C(=O)N3CCC[C@H]3C(=O)N3CCC[C@H]3C(=O)N[C@@H](CCCNC(=N)N)C(=O)O)c3ccccc3C2(C)C)C(C)(C)c2ccccc21 (stereo partly shown) [^natGa-NODAGA-K(Cy5)DKPPR, metal not drawn] ({NODAGA}-K(Cy5(nonsulfonated))DKPPR-OH; C-terminus assumed) | 44,552 L mol^−1 cm^−1 | 61% | 31 ± 1 h | 32 ± 1 h | 30 ± 3 h | 28 ± 2 h | Proliferation of cells (confluence follow-up) (MDA-MB-231 cells; MDA-MB-231, 0–10 µM): did not modify; Proliferation of cells (confluence follow-up) (HUVEC cells; 0–10 µM): did not modify |
|  | ATWLPPR [ligand peptide of NRP-1 from previous studies] |  |  |  |  |  |  | IC50 (NRP-1 protein): 19 µM |
| 2 ± 1 µM | H-KDKPPR-OH [KDKPPR] |  |  | 32 ± 1 h | 33 ± 2 h | 29 ± 2 h | 30 ± 2 h | Kd (NRP-1): 8.7 µM |
| 300 µM | KRPKPD |  |  |  |  |  |  | Concentration needed to decrease the binding of b-VEGF-165 to NRP-1 [2]: > 100 µM; SPR interaction toward NRP-1 (shape of curve) [3]: weak affinity or a nonspecific interaction |
|  | VEGF-165: natural ligand of NRP-1, positive control |  |  |  |  |  |  | Shift of b-VEGF-165 binding to the receptor ([2]; used at 26 nM, positive control, data not shown): completely shifted |
|  | [^68Ga]Ga-NODAGA-K(Cy5)DKPPR |  |  |  |  |  |  | In vitro stability, remaining stable [4]: > 95%; Time to plateau of normalized tumor TTAC after injection [5]: roughly 10 min; In vitro stability (time) [6]: > 120 min; In vitro stability, remaining stable ([6]; plasma, 2 h): > 95% |
|  | ^natGa-NODAGA-K(Cy5)RPKPD ({NODAGA′}-K(Cy5)RPKPD; also: NODAGA complexed with natGa) | 39,870 L mol^−1 cm^−1 | 79% | 33 ± 1 h | 33 ± 3 h | 27 ± 1 h | 28 ± 1 h | Concentration needed to decrease the binding of b-VEGF-165 to NRP-1 [2]: > 100 µM; SPR interaction toward NRP-1 (shape of curve) [3]: weak affinity or a nonspecific interaction |
